Laboratory results published in patent US20080058271A1, “Prevention of primary sjogren' s Syndrome by ICA69 deficiency” (priority 2002, published 2008).
Ends that are not written are not given here.

Legend:
[1] = test system: NOD lymph node cells; experiment: T cell proliferative responses in draining lymph node cells; format: cell-based, mouse; details: 10 week old NOD females, pooled lymph node cells
Description: FIG. 2. T cell proliferative responses to ICA69, its dominant epitope, Tep69, BSA, and its dominant NOD mouse epitope, ABBOS, were measured in lymph nodes draining the pancreas (A), and submandibular glands (B), or lymph nodes draining the lower (C) or upper (D) extremities. Gray columns: control cultures stimulated with ovalbumin (OVA) or Medium (MED) only. To obtain sufficient cell numbers, lymph node cells were pooled from seven mice. One of three similar data sets is shown.
(§1) NOD lymph-node, spleen and human peripheral blood T cell responses were measured with three slightly different protocols. Draining lymph node cells from 10 week old NOD females were pooled. 2×10^5 lymph node cells along with 2×10^5 irradiated (1100 rad) syngeneic spleen cells were cultured in serum-free AIM-V media (Life Technologies, Mississauga, Ontario, Canada) in the presence of protein or peptide antigen. Proteins (ICA69, BSA or OVA) were used at concentrations of […], peptides (Tep69, ABBOS) at […]. After 72 hr of incubation, cultures were pulsed overnight with […] of [^3H]thymidine, harvested and subjected to liquid scintillation counting. Experiments were repeated three times with similar results, each with lymph nodes pooled from groups of 4-7 mice. Proliferation assays with spleen cells used 4×10^5 responding cells/well and no irradiated splenocytes. For the detection of human T cell responses, Ficoll-Hypaque purified peripheral blood mononuclear cells (PBMC) were cultured at 10^5 cells/well for one week in serum-free Hybrimax 2897 medium (Sigma) supplemented with human IL-2 (10 U/well) and 0.01-10 mg of antigen^15. This assay performed well in a large, blinded study and in the first international T cell workshop of the Immunology of Diabetes Society^22.
This phenotype could reflect a role for ICA69 as an autoantigen or a role for ICA69 protein-function. To begin an analysis of these two alternatives, we measured T cell autoreactivity to ICA69 and its immunodominant T cell epitope, Tep69, in 10 week old NOD females. Proliferative in vitro recall responses were assessed in draining lymph nodes from various tissues, in order to localize where T cell tolerance to ICA69 was lost. […] Spleen cell responses to ICA69, Tep69, BSA and ABBOS were present as previously described by us^21 and others^24 (data not shown, but for example see FIG. 3F).

[2] = test system: peripheral blood mononuclear cells (PBMC); experiment: Human T cell proliferative responses in PBMC; format: cell-based; details: for T cell responses in patients with SLE and in healthy controls / patients with primary SS with positive T cell responses: PBMC; for T cell responses in patients with SLE and in healthy controls: SLE n=6, healthy controls n=12; for patients with primary SS with positive T cell responses: n=9, P 0.008 vs. SLE, P 0.004 vs. healthy controls; for T cell responses to control antigens (stimulation index): PBMC of primary SS, SLE patients and healthy controls
Description: FIG. 7.(A) T cell responses to ICA69, BSA, Tep69, and ABBOS were analyzed in patients with primary SS (n=9) SLE patients (n=6) or healthy controls (n=12). Positive responses to tetanus toxoid (TT) contrasted with negative responses to OVA, actin or the type 1 diabetes-associated GAD65 peptide, p555. Data are expressed as stimulation index (SI, experimental/background cpm, as described herein). Background counts were similar in all cohorts (mean±SD: 1154±354 cpm). FIG. 8. Autoantibodies to ICA69 (1 μg protein/lane) were detected in Western blots of sera (1 to 1000 dilution) from patients with pSS (lanes 1-5) but not in controls (lanes 6-8).
Blood samples were obtained from patients (n=15) with primary SS or SLE at the Arthritis Center at Toronto Western Hospital and from healthy, adult volunteers through ethics-board approved consent (n=12). pSS patients were female, had documented xerostomia and xerophthalmia and met San Diego disease criteria. All were anti-Ro antibody positive, 6 had anti-fodrin autoantibodies and all had minor salivary gland biopsy focus scores of >5. Healthy controls (n=12) of similar age and gender profile were recruited from staff. Fresh blood was used for T cell studies. In immunoblotting experiments, sera from patients and controls were diluted at 1:1000 and blotted on nitrocellulose containing […] of recombinant ICA69 protein to detect the presence of anti-ICA69 antibodies.
as §1
Proliferative T cell responses were expressed as stimulation index (SI, experimental/control cpm). SI's greater than the mean SI in OVA-stimulated cultures plus 3 SD were deemed positive^15. Numeric data were compared by Mann-Whitney tests, Fisher's exact test was used to analyze tables. All P values were two-tailed and significance was set at 5%. Figures present mean values plus lSD.
To determine if ICA69 was an autoimmune target in patients with primary SS, we first measured T cell responses to ICA69 and Tep69 in PBMC from patients with primary SS (n=9), systemic lupus erythematosus (SLE, n=6) and age-matched healthy controls (n=12) (FIG. 7A).

[3] = test system: MHC class II; details: reference 21; cited from earlier work
[4] = test system: NOD mouse sialoadenitis (submandibular gland mononuclear foci); details: single i.p. 200 mg ABBOS in IFA, 10 wk old NOD females
[5] = test system: NOD mouse pSS (salivary disease); details: instantly disclosed protocol

## AFIKATGKKEDE [Tep69]
[1]
  T cell proliferative responses in pancreatic and submandibular lymph node cells: detected
  T cell proliferative responses in popliteal or axillary lymph nodes: not in popliteal or axillary lymph nodes
[2]
  T cell responses in patients with SLE and in healthy controls: absent
  patients with primary SS with positive T cell responses: 8 of 9
[3]
  MHC class II affinity: very low

## FKADEKKFWGKYLYE [ABBOS, FKADEKKFWGKYLYE]
[4]
  mice with moderate disease exacerbation: 12%
  mice with moderate disease exacerbation (of mice analyzed): 2/17
[5]
  disease acceleration with the optimized treatment protocol: no acceleration

## OVA: Ovalbumin (Sigma), control antigen
[2]
  T cell responses to control antigens (stimulation index): negative

## TT: tetanus toxoid, positive control antigen
[2]
  T cell responses to control antigens (stimulation index): Positive

## actin
[2]
  T cell responses to control antigens (stimulation index): negative

B1: ICA69: Human recombinant islet cell autoantigen 69 kDa (protein)
chain: MSGHKCSYPWDLQDRYAQDKSVVNKMQQKYWETKQAFIKATGKKEDEHVVASDADLDAKLELFHSIQRTCLDLSKAIVLYQKRICFLSQEENELGKFLRSQGFQDKTRAGKMMQATGKALCFSSQQRLALRNPLCRFHQEVETFRHRAISDTWLTVNRMEQCRTEYRGALLWMKDVSQELDPDLYKQMEKFRKVQTQVRLAKKNFDKLKMDVCQKVDLLGASRCNLLSHMLATYQTTLLHFWEKTSHTMAAIHESFKGYQPYEFTTLKSLQDPMKKLVEKEEKKKINQQESTDAAVQEPSQLISLEEENQRKESSSFKTEDGKSILSALDKGSTHTACSGPIDELLDMKSEEGACLGPVAGTPEPEGADKDDLLLLSEIFNASSLEEGEFSKEWAAVFGDGQVKEPVPTMALGEPDPKAQTGSGFLPSQLLDQNMKDLQASLQEPAKAASDLTAWFSLFADLDPLSNPDAVGKTDKEHELLNA
[1]
  T cell proliferative responses in pancreatic and submandibular lymph node cells: detected
  T cell proliferative responses in popliteal or axillary lymph nodes: not in popliteal or axillary lymph nodes
[2]
  T cell responses in patients with SLE and in healthy controls: absent
  patients with primary SS with positive T cell responses: 8 of 9
